This note sets out measurements from publication PMC11570497 (Nature Plants, 2024).

Entries after “also recorded” stand apart in the source; their conditions may differ. Where no end group is shown, it is not given here. The star is where a group is joined. Dabcyl = CN(C)c1ccc(N=Nc2ccc(C(=O)*)cc2)cc1; EDANS = O=S(=O)(O)c1cccc2c(NCCN*)cccc12

For data set [1], the system named is SBT5.2a–His. Format: biochemical, Nicotiana benthamiana. Particulars: different concentrations of SBT5.2a–His; 100 nM csp22; 45 minutes; read-out ROS burst on six-week-old leaf discs; n = 6. As to the method:
Four-week-old N. benthamiana leaves were infiltrated with a 1:1 mixture (final OD600 = 0.5 for each) of A. tumefaciens GV3101 containing the silencing suppressor P19 and pPB097 or pJP008. AF containing SBT5.2a–His or P69B–His was extracted six days after infiltration and purified as previously described[44],[45].
The ROS burst assay was performed as previously described[43] except that L-012 (Wako Chemical) was used instead of luminol and the diameter of leaf discs used here was 4 mm rather than 6 mm. Briefly, after incubation in water overnight, one leaf disc (4 mm in diameter) was added to 100 µl of solution containing 25 ng µl^−1 L-012, 25 ng µl^−1 HRP and specified elicitor treatments. […] After incubation, 25 ng µl^−1 L-012 and 25 ng µl^−1 HRP were added to the AFs. Chemiluminescence was measured immediately with an Infinite M200 plate reader (Tecan) every minute for one hour.

Data set [2] is described as follows: AF of sbt5.2 mutant plants. The conditions noted are these: Nicotiana benthamiana, 21 °C, up to 20 min.
For data set [3], the system named is P69B–His. Put plainly: purified P69B–His. Particulars: tomato, 21 °C, up to 20 min.
Data set [4] is described as follows: AF from WT N. benthamiana. Particulars: Nicotiana benthamiana, room temperature, up to 60 min.
For data set [5] the following is noted: n = 8.
Data set [6] concerns leaf discs of N. benthamiana. Format: cell-based, Nicotiana benthamiana. Particulars: n = 6.

As for LNGKVKWFNNAKGYGFILEDGK [csp22], the “inactivation of csp22 elicitor activity by purified SBT5.2a–His” value in data set [1] is reported as “dose-dependent inactivation”.

Consider Dabcyl-VKWFNNAK-{EDANS}, for which the not cleaved entry in data set [2] is recorded as “no longer cleaved in AF of sbt5.2 mutants”; in data set [3], “not cleaved by purified P69B–His”.

In the case of “MLNGKVKWFNNAKGYGFILEDGKPDEDLFAHYSAIQMDGYKTLKAGQPVRFEIIQGPKGLHAVNIQSSLAKIGEPVKSAHAHTPEHAHA”, in data set [4], the cleaved bond result is recorded as “F-N, first_seen, 15 min; also recorded: L-K, first_seen, 15 min”.

“QTGTVKWFNDEKGFGFITPQSG [csp22 PSPTO4145]”: the “speed of inactivation/degradation in AF of WT plants” value in data set [5] is listed as “slower than that of CspD”.

For `O=S(=O)(F)Cc1ccccc1` [PMSF], the “block of CspD perception (ROS burst) by subtilase inhibitor” value in data set [6] is given as “unable to block CspD perception”.

For the compound “DTGTVKWFNTSKGFGFISRDSG [csp22 PSPTO3984]”, the “speed of inactivation/degradation in AF of WT plants” value in data set [5] is reported as “more quickly degraded than that of CspD”.
